# Reference: article PMC6302903, “Protein and Chemical Determinants of BL-1249 Action and Selectivity for K2P Channels” (ACS Chemical Neuroscience, 2018)
# Biological target: T1, K2P2.1(TREK-1) F172M (Mus musculus, UniProt P97438, F187M)
# T1 construct: expressed in transfected cells; host or cells: Xenopus laevis oocytes, mRNA injected
# Assay: TEVC of K2P2.1(TREK-1) mutant F172M
# Assay type: cell-based
# Details: Xenopus oocytes
# Source text: To identify K2P2.1(TREK-1) M2 residues that might participate in the BL-1249 response, we mapped the residues that differ between K2P2.1(TREK-1) and K2P4.1(TRAAK) in the context of the K2P2.1(TREK-1) structure[6] (Figure 5B,C). Two K2P2.1(TREK-1) M2 residues stood out as candidates that could explain the reduction in BL-1249 response when the entire M2 helix was replaced with M2 from K2P4.1(TRAAK). One is at the M2/M4 interface and occurs between Phe172 and Arg297 via a π–cation interaction that would be lost when Phe172 is replaced with the equivalent K2P4.1(TRAAK) residue Met134 (Figure 5C, right inset). […] To assess the importance of these interactions in the context of BL-1249 response, we made the K2P2.1(TREK-1) mutants F172M and F185L and measured their responses to BL-1249 (Figure 5D). […]
# Xenopus laevis oocytes were harvested in accordance with UCSF IACUC protocol AN129690 and digested in calcium-free ND-96 (96 mM NaCl, 2 mM KCl, 3.8 mM MgCl2) immediately following harvest, as previously described.[6],[10] […] Defolliculated stage V–VI oocytes were injected with 0.2–6.0 ng of mRNA in 50 nL, and currents were recorded 24–48 h after injection. mRNA was synthesized from plasmid DNA using mMessage mMachine Kit (T7 promoter, Ambion, Life Technologies) and purified using RNEasy Kit (Qiagen). […]
# T1 sequence (P97438 1-411 isoform P97438-2 F172M): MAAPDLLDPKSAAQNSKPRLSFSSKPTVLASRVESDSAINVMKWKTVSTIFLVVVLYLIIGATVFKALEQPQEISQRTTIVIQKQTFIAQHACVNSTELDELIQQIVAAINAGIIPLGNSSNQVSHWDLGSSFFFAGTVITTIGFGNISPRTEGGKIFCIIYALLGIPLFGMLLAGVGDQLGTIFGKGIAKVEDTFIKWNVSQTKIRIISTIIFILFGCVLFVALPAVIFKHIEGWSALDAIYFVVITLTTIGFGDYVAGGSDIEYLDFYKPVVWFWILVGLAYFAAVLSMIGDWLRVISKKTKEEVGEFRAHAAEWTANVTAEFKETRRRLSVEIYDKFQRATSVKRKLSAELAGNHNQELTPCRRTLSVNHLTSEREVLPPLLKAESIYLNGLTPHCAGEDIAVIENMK
smiles,measurement,value
"c1ccc(-c2nnn[nH]2)c(Nc2cccc3c2CCCC3)c1 [BL-1249, (5,6,7,8-tetrahydro-naphthalen-1-yl)-[2-(1H-tetrazol-5-yl)-phenyl]-amine]",EC50,15 ± 2 µM
